Test results from the supplement of paper PMC13380429.

What was measured:
Settings in all cases: 72 h
Vero E6 [1] = assay: relative viability EC50 (midpoint between 100% and the lowest measured viability); higher = less toxic
U2OS [2] = assay: as above
Calu-3 [3] = assay: as above
HepG2 [4] = assay: as above
Caco-2 [5] = assay: as above
Vero E6 [6] = assay: drug sensitivity score (DSS) for viability; higher = more toxic; extreme values may be limits of the assay
U2OS [7] = assay: as above
Calu-3 [8] = assay: as above
HepG2 [9] = assay: as above
Caco-2 [10] = assay: as above
Vero E6 [11] = assay: cell viability relative to DMSO; higher = less toxic
U2OS [12] = assay: as above
Calu-3 [13] = assay: as above
HepG2 [14] = assay: as above
Caco-2 [15] = assay: as above

Structure (SMILES) | relative viability EC50 (Vero E6 [1]) [µM] | relative viability EC50 (U2OS [2]) [µM] | relative viability EC50 (Calu-3 [3]) [µM] | relative viability EC50 (HepG2 [4]) [µM] | relative viability EC50 (Caco-2 [5]) [µM] | drug sensitivity score (Vero E6 [6]) | drug sensitivity score (U2OS [7]) | drug sensitivity score (Calu-3 [8]) | drug sensitivity score (HepG2 [9]) | drug sensitivity score (Caco-2 [10]) | cell viability (Vero E6 [11]; 1 nM) [%] | cell viability (Vero E6 [11]; 10 nM) [%] | cell viability (Vero E6 [11]; 100 nM) [%] | cell viability (Vero E6 [11]; 1000 nM) [%] | cell viability (Vero E6 [11]; 10000 nM) [%] | cell viability (U2OS [12]; 1 nM) [%] | cell viability (U2OS [12]; 10 nM) [%] | cell viability (U2OS [12]; 100 nM) [%] | cell viability (U2OS [12]; 1000 nM) [%] | cell viability (U2OS [12]; 10000 nM) [%] | cell viability (Calu-3 [13]; 1 nM) [%] | cell viability (Calu-3 [13]; 10 nM) [%] | cell viability (Calu-3 [13]; 100 nM) [%] | cell viability (Calu-3 [13]; 1000 nM) [%] | cell viability (Calu-3 [13]; 10000 nM) [%] | cell viability (HepG2 [14]; 1 nM) [%] | cell viability (HepG2 [14]; 10 nM) [%] | cell viability (HepG2 [14]; 100 nM) [%] | cell viability (HepG2 [14]; 1000 nM) [%] | cell viability (HepG2 [14]; 10000 nM) [%] | cell viability (Caco-2 [15]; 1 nM) [%] | cell viability (Caco-2 [15]; 10 nM) [%] | cell viability (Caco-2 [15]; 100 nM) [%] | cell viability (Caco-2 [15]; 1000 nM) [%] | cell viability (Caco-2 [15]; 10000 nM) [%]
CCCCOc1ccc(C(=O)CCN2CCCCC2)cc1 [dyclonine] | > 10 | > 10 | > 10 | > 10 | > 10 | 0 | 0 | 0 | 0 | 1.1 | 94.7 | 102 | 99 | 98.6 | 97.3 | 99.9 | 103 | 94.3 | 100 | 95.5 | 96 | 109 | 99.2 | 109 | 102 | 96.6 | 93.3 | 106 | 98 | 94.7 | 102 | 108 | 101 | 85.7 | 94
COc1ccc2c(C(=S)N(C)CC(=O)O)cccc2c1C(F)(F)F [tolrestat] | > 10 | > 10 | > 10 | > 10 | > 10 | 0 | 0 | 0 | 0 | 0 | 94.7 | 95.9 | 93.5 | 91.2 | 96.8 | 94.7 | 98.4 | 96.5 | 98 | 99.1 | 103 | 100 | 94.5 | 107 | 98.6 | 91.2 | 98.6 | 94.9 | 94.2 | 103 | 92.9 | 95.8 | 90.6 | 98.9 | 89.3
Cc1c(Cl)cccc1Nc1ccccc1C(=O)O [tolfenamic-acid] | > 10 | > 10 | > 10 | > 10 | > 10 | 0 | 0 | 0 | 0 | 0 | 98.1 | 103 | 90.4 | 98.8 | 101 | 98.9 | 95 | 101 | 101 | 98.8 | 98.8 | 96.3 | 92.7 | 92.4 | 101 | 98.4 | 111 | 106 | 110 | 103 | 95.7 | 99 | 102 | 96.4 | 107
Cc1ccc(Sc2cncc3sc(C(N)=O)cc23)cc1 | > 10 | > 10 | > 10 | > 10 | > 10 | 0 | 0 | 1.2 | 1.6 | 0 | 94.3 | 98.3 | 82 | 91.4 | 98.1 | 100 | 97.5 | 110 | 108 | 113 | 95.7 | 102 | 89.6 | 90.9 | 80.6 | 94.4 | 105 | 86.7 | 87.6 | 87.7 | 97.7 | 92.1 | 96.5 | 89.2 | 90.8
CC(=O)Nc1cccc(Nc2ncnc(N3CCC(OCc4ccc(OC(F)(F)F)cc4)CC3)n2)c1C [TC-N-1752] | > 10 | > 10 | > 10 | 3.47 | > 10 | 0 | 0 | 0 | 3.4 | 0.5 | 95.8 | 102 | 100 | 94.4 | 107 | 96 | 98.7 | 95.2 | 94.4 | 99.3 | 93.9 | 102 | 87.1 | 97.8 | 107 | 105 | 95.8 | 93 | 104 | 31.5 | 94.7 | 97.8 | 94.5 | 101 | 80.4
Cc1c(C)c2c(c(C)c1O)CC[C@@](C)(CCC[C@H](C)CCC[C@H](C)CCCC(C)C)O2 [vitamin-E] | > 10 | > 10 | > 10 | > 10 | > 10 | 0 | 0 | 0 | 0 | 0 | 86.5 | 99.4 | 88.5 | 101 | 103 | 99.9 | 95.1 | 103 | 94.9 | 97.2 | 98.9 | 82.6 | 102 | 99.3 | 91.7 | 93.6 | 100 | 91 | 106 | 108 | 101 | 89.8 | 97.1 | 94.8 | 98.5
Clc1ccc(C2=CCC[C@H]3CC[C@@H]2N3)cn1 [UB-165] | > 10 | > 10 | > 10 | > 10 | > 10 | 0 | 0 | 0 | 0 | 0 | 101 | 102 | 95.6 | 100 | 103 | 101 | 107 | 97.1 | 97.5 | 102 | 108 | 107 | 91.3 | 93.2 | 100 | 98.2 | 97 | 93.1 | 95.5 | 102 | 92.2 | 97.7 | 96.8 | 93 | 102
